In ChEMBL document CHEMBL4385611, “Difluoromethylene at the γ-Lactam α-Position Improves 11-Deoxy-8-aza-PGE1 Series EP4 Receptor Binding and Activity: 11-Deoxy-10,10-difluoro-8-aza-PGE1 Analog (KMN-159) as a Potent EP4 Agonist” (J Med Chem, 2019):
pEC50, pKi: −log10 of the molar value.

Assays:
[1] = target: T1, Prostaglandin E2 receptor EP4 subtype (Homo sapiens, UniProt P35408); assay: Agonist activity at human EP4 receptor expressed in HEK293T/17 cells assessed as increase in GalphaS-mediated CREB activation measured after 6 to 24 hrs by SEAP reporter gene-based chemiluminescence assay; assay type: functional, cell-based
T1 sequence (P35408 whole entry): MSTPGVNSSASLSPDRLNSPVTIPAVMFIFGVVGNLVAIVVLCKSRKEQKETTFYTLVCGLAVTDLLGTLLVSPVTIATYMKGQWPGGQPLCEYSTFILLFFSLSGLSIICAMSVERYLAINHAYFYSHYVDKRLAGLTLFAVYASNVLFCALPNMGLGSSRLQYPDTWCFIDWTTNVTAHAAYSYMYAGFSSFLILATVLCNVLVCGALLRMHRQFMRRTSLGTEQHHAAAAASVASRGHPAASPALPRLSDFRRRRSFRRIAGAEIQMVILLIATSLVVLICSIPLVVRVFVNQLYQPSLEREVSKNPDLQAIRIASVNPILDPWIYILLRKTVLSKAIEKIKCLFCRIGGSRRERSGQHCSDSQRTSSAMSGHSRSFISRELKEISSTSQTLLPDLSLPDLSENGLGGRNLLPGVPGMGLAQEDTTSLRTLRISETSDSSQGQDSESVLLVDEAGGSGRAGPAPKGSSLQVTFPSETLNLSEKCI

[2] = target: T2, Prostaglandin E2 receptor EP2 subtype (Homo sapiens, UniProt P43116); assay: Agonist activity at human EP2 receptor expressed in HEK293T/17 cells assessed as increase in intracellular cAMP level incubated for 30 mins by ELISA; assay type: functional, cell-based
T2 sequence (P43116 whole entry): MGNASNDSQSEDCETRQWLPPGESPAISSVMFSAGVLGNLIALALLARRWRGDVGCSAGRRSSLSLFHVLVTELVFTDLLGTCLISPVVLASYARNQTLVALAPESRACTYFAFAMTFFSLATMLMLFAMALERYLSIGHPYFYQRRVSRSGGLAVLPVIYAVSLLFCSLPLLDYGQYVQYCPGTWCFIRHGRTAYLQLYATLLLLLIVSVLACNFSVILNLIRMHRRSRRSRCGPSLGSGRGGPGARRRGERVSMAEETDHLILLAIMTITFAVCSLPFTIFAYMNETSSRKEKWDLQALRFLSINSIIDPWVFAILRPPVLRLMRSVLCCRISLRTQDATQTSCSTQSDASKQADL

[3] = target: T2, Prostaglandin E2 receptor EP2 subtype; assay: Agonist activity at human EP2 receptor expressed in HEK293T/17 cells assessed as increase in intracellular cAMP level at 10 uM incubated for 30 mins by ELISA relative to control; assay type: functional, cell-based
[4] = target: T2, Prostaglandin E2 receptor EP2 subtype; assay: Agonist activity at human EP2 receptor expressed in HEK293T/17 cells assessed as increase in GalphaS-mediated CREB activation measured after 6 to 24 hrs by SEAP reporter gene-based chemiluminescence assay; assay type: functional, cell-based
[5] = target: T2, Prostaglandin E2 receptor EP2 subtype; assay: Agonist activity at human EP2 receptor expressed in HEK293T/17 cells assessed as increase in GalphaS-mediated CREB activation at 10 uM measured after 6 to 24 hrs by SEAP reporter gene-based chemiluminescence assay relative to control; assay type: functional, cell-based
[6] = target: T1, Prostaglandin E2 receptor EP4 subtype; assay: Displacement of [3H]PGE2 from human recombinant EP4 receptor expressed in HEK293 cell membranes after 120 mins by liquid scintillation counting method
[7] = target: T2, Prostaglandin E2 receptor EP2 subtype; assay: Displacement of [3H]PGE2 from human recombinant EP2 receptor expressed in HEK293 cell membranes after 120 mins by liquid scintillation counting method
[8] = target: T3, Prostaglandin E2 receptor EP3 subtype (Homo sapiens, UniProt P43115); assay: Displacement of [3H]PGE2 from human recombinant EP3 receptor expressed in HEK293 cell membranes after 120 mins by liquid scintillation counting method
T3 sequence (P43115 whole entry): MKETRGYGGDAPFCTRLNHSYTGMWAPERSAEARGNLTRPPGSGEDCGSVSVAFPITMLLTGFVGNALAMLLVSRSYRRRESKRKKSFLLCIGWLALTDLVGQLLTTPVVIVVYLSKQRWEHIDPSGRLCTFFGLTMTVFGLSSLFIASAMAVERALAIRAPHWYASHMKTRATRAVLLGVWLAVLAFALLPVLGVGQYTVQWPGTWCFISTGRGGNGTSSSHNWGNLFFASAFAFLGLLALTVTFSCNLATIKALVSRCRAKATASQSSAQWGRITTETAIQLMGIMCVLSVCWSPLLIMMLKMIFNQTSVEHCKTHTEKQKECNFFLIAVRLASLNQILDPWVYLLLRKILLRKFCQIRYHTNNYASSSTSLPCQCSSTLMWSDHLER

[9] = target: T1, Prostaglandin E2 receptor EP4 subtype; assay: Agonist activity at human EP4 receptor expressed in HEK293T/17 cells assessed as increase in intracellular cAMP level incubated for 30 mins by ELISA; assay type: functional, cell-based

| Compound | pEC50 [1] | pEC50 [2] | Activity [3] | pEC50 [4] | Activity [5] | pKi [6] | pKi [7] | pKi [8] | pEC50 [9] |
| --- | --- | --- | --- | --- | --- | --- | --- | --- | --- |
| CCCCC[C@H](O)/C=C/[C@H]1CCC(=O)N1CCCCCCC(=O)O | 10.19 | < 5.00 | < 50% | < 5.00 | < 50% | 8.79 | 5.84 | 5.93 |  |
| CCCCC[C@H](O)/C=C/[C@H]1CC(F)(F)C(=O)N1CCCCCCC(=O)O | 10.68 | < 5.00 | < 50% | 5.64 |  | 9.70 | 6.48 | 6.46 | 9.46 |
| COCc1cccc(C[C@H](O)/C=C/[C@H]2[C@H](O)CC(=O)[C@@H]2CCSCCCC(=O)O)c1 | 11.00 | 5.00 | < 50% | 6.21 |  | 9.40 |  |  |  |
